Experimental data as given in patent publication US20150105252A1, “SUBSTITUTED PYRAZOLES AS HERBICIDES” (E I DU PONT DE NEMOURS AND COMPANY, priority 2013, published 2015).

Columns and labels:
corn = assay: Test F preemergence; type: in vivo, Zea mays
In short: (§1)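 Visual injury was scored from 0 (none) to 100 (complete control) relative to untreated controls after 14–21 days in a greenhouse. Before that, formulated compound (solvent plus surfactant) was sprayed either on silt-loam soil right after sowing or on emerged plants at the 1–4-leaf stage, 2–18 cm tall.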

kochia = assay: Test D preemergence; type: in vivo, Kochia scoparia; details: scale 0 to 100
Source text: (§2) Seeds of plant species selected from bluegrass (annual bluegrass, Poa annua), blackgrass (Alopecurus myosuroides), canarygrass (littleseed canarygrass, Phalaris minor), chickweed (common chickweed, Stellaria media), galium (catchweed bedstraw, Galium aparine), bromegrass, downy (downy bromegrass, Bromus tectorum), field poppy (Papaver rhoeas), field violet (Viola arvensis), foxtail, green (green foxtail, Setaria viridis), deadnettle (henbit deadnettle, Lamium amplexicaule), ryegrass, Italian (Italian ryegrass, Lolium multiflorum), kochia (Kochia scoparia), lambsquarters (Chenopodium album), oilseed rape (Brassica napus), pigweed (redroot pigweed, Amaranthus retroflexus), chamomile (scentless chamomile, Matricaria inodora), speedwell (bird's-eye speedwell, Veronica persica), barley, spring (spring barley, Hordeum vulgare), wheat, spring (spring wheat, Triticum aestivum), buckwheat, wild (wild buckwheat, Polygonum convolvulus), mustard, wild (wild mustard, Sinapis arvensis), oat, wild (wild oat, Avena fatua), radish, wild (wild radish, Raphanus raphanistrum), windgrass (Apera spica-venti), Russian thistle (Salsola kali), barley, winter (winter barley, Hordeum vulgare), and wheat, winter (winter wheat, Triticum aestivum) were planted into a silt loam soil and treated preemergence with test chemicals formulated in a non-phytotoxic solvent mixture which included a surfactant.
(§3) At the same time, these species were planted in pots containing Redi-Earth® planting medium (Scotts Company, 14111 Scottslawn Road, Marysville, Ohio 43041) comprising spaghnum peat moss, vermiculite, wetting agent and starter nutrients and treated with postemergence applications of the test chemicals formulated in the same manner. Plants ranged in height from 2 to 18 cm (1- to 4-leaf stage). Treated plants and controls were maintained in a controlled growth environment for 14 to 21 days after which time all species were compared to controls and visually evaluated. Plant response ratings, summarized in Table D, are based on a scale of 0 to 100 where 0 is no effect and 100 is complete control. A dash (-) response means no test result.

deadnettle = assay: Test D preemergence; type: in vivo, Lamium amplexicaule; details: scale 0 to 100
In short: (§4)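 Pre: sown in silt loam, sprayed at once. Post: grown in peat-moss/vermiculite mix, sprayed at 1–4 leaves (2–18 cm). Formulation: non-phytotoxic solvent + surfactant. Read-out: visual 0–100 vs controls, 14–21 d.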

mustard, wild = assay: Test D preemergence; type: in vivo, Sinapis arvensis; details: scale 0 to 100
In short: as §4

lambsquarters = assay: Test F preemergence; type: in vivo, Chenopodium album
Source text: (§5) Seeds of plant species selected from corn (Zea mays), soybean (Glycine max), velvetleaf (Abutilon theophrasti), lambsquarters (Chenopodium album), wild poinsettia (Euphorbia heterophylla), pigweed, palmer (palmer pigweed, Amaranthus palmeri), common waterhemp (Amaranthus rudis), surinam grass (Brachiaria decumbens), large crabgrass (Digitaria sanguinalis), crabgrass, Brazil (Brazilian crabgrass, Digitaria horizontalis), fall panicum (Panicum dichotomiflorum), giant foxtail (Setaria faberii), green foxtail (Setaria viridis), goosegrass (Eleusine indica), johnsongrass (Sorghum halepense), common ragweed (Ambrosia elation), barnyardgrass (Echinochloa crus-galli), southern sandbur (Cenchrus echinatus), arrowleaf sida (Sida rhombifolia), Italian ryegrass (Lolium multiflorum), dayflower, VA (Virginia (VA) dayflower, Commelina virginica), field bindweed (Convolvulus arvensis), cocklebur (common cocklebur, Xanthium strumarium), morningglory (Ipomoea coccinea), nightshade (eastern black nightshade, Solanum ptycanthum), kochia (Kochia scoparia), yellow nutsedge (Cyperus esculentus), and hairy beggarticks (Bidens pilosa), were planted into a silt loam soil and treated preemergence with test chemicals formulated in a non-phytotoxic solvent mixture which included a surfactant.
(§6) At the same time, plants from these crop and weed species and also horseweed (Canada horseweed, Conyza canadensis), smartweed (ladysthumb smartweed, Polygonum persicaria), waterhemp_RES1, (ALS & Triazine resistant common waterhemp, Amaranthus rudis), and waterhemp_RES2, (ALS & HPPD resistant common waterhemp, Amaranthus rudis) were treated with postemergence applications of test chemicals formulated in the same manner. Plants ranged in height from 2 to 18 cm for postemergence treatments (1- to 4-leaf stage). Treated plants and controls were maintained in a greenhouse for 14 to 21 days, after which time all species were compared to controls and visually evaluated. Plant response ratings, summarized in Table F, are based on a scale of 0 to 100 where 0 is no effect and 100 is complete control. A dash (-) response means no test result.

radish, wild = assay: Test D postemergence; type: in vivo, Raphanus raphanistrum; details: scale 0 to 100
Source text: as §2, §3

bluegrass = assay: Test D postemergence; type: in vivo, Poa annua; details: scale 0 to 100
Source text: as §2, §3

bromegrass, downy = assay: Test D postemergence; type: in vivo, Bromus tectorum; details: scale 0 to 100
In short: as §4

pigweed, palmer = assay: Test F preemergence; type: in vivo, Amaranthus palmeri
In short: as §1

field poppy = assay: Test D postemergence; type: in vivo, Papaver rhoeas; details: scale 0 to 100
Source text: as §2, §3

common waterhemp = assay: Test F preemergence; type: in vivo, Amaranthus rudis
Source text: as §5, §6

ryegrass, Italian = assay: Test D postemergence; type: in vivo, Lolium multiflorum; details: scale 0 to 100
Source text: as §2, §3

oilseed rape = assay: Test D preemergence; type: in vivo, Brassica napus; details: scale 0 to 100
In short: as §4

chickweed = assay: Test D postemergence; type: in vivo, Stellaria media; details: scale 0 to 100
Source text: as §2, §3

[1] = Preemergence, 31 g ai/ha, scale 0 to 100
[2] = Preemergence, 62 g ai/ha, scale 0 to 100
[3] = Preemergence, 125 g ai/ha, scale 0 to 100
[4] = preemergence, 8 g ai/ha, scale 0 to 100, 100 is complete control
[5] = preemergence, 16 g ai/ha, scale 0 to 100, 100 is complete control

CCc1cc(C(=O)NCC(F)(F)F)nn1Cc1ccnc(C(F)(F)F)c1 [Compound 78, 5-ethyl-N-(2,2,2-trifluoroethyl)-1-[[(2-trifluoromethyl)-4-pyridinyl]methyl]-1H-pyrazole-3-carboxamide]
Plant response rating, Corn (corn; [1]): 20 | Plant response rating, Corn (corn; [2]): 65 | Plant response rating, Corn (corn; [3]): 70 | Plant response rating, Corn (corn; [4]): 0 | Plant response rating, Corn (corn; [5]): 10 | Plant response rating, Kochia (kochia; 31 g ai/ha): 95 | Plant response rating, Kochia (kochia; 62 g ai/ha): 100 | Plant response rating, Kochia (kochia; 125 g ai/ha): 100 | Plant response rating, Kochia (kochia; 250 g ai/ha): 100 | Plant response rating, Deadnettle (deadnettle; 31 g ai/ha): 10 | Plant response rating, Deadnettle (deadnettle; 62 g ai/ha): 10 | Plant response rating, Deadnettle (deadnettle; 125 g ai/ha): 25 | Plant response rating, Deadnettle (deadnettle; 250 g ai/ha): 100 | Plant response rating, Mustard, Wild (mustard, wild; 31 g ai/ha): 100 | Plant response rating, Mustard, Wild (mustard, wild; 62 g ai/ha): 100 | Plant response rating, Mustard, Wild (mustard, wild; 125 g ai/ha): 100 | Plant response rating, Mustard, Wild (mustard, wild; 250 g ai/ha): 100 | Plant response rating, Lambsquarters (lambsquarters; [1]): 100 | Plant response rating, Lambsquarters (lambsquarters; [2]): 100 | Plant response rating, Lambsquarters (lambsquarters; [3]): 100 | Plant response rating, Lambsquarters (lambsquarters; [4]): 50 | Plant response rating, Lambsquarters (lambsquarters; [5]): 65 | Radish, Wild plant response rating (radish, wild; Postemergence, 31 g ai/ha): 40 | Radish, Wild plant response rating (radish, wild; Postemergence, 125 g ai/ha): 60 | Radish, Wild plant response rating (radish, wild; Postemergence, 250 g ai/ha): 75 | Radish, Wild plant response rating (radish, wild; postemergence, 62 g ai/ha): 50 | Bluegrass plant response rating (bluegrass; Postemergence, 31 g ai/ha): 10 | Bluegrass plant response rating (bluegrass; Postemergence, 125 g ai/ha): 15 | Bluegrass plant response rating (bluegrass; Postemergence, 250 g ai/ha): 30 | Bluegrass plant response rating (bluegrass; postemergence, 62 g ai/ha): 10 | Bromegrass, Downy plant response rating (bromegrass, downy; Postemergence, 31 g ai/ha): 10 | Bromegrass, Downy plant response rating (bromegrass, downy; Postemergence, 125 g ai/ha): 20 | Bromegrass, Downy plant response rating (bromegrass, downy; Postemergence, 250 g ai/ha): 25 | Bromegrass, Downy plant response rating (bromegrass, downy; postemergence, 62 g ai/ha): 15 | Plant response rating, Pigweed, Palmer (pigweed, palmer; [1]): 35 | Plant response rating, Pigweed, Palmer (pigweed, palmer; [2]): 100 | Plant response rating, Pigweed, Palmer (pigweed, palmer; [3]): 100 | Plant response rating, Pigweed, Palmer (pigweed, palmer; [4]): 20 | Plant response rating, Pigweed, Palmer (pigweed, palmer; [5]): 40 | Field Poppy plant response rating (field poppy; Postemergence, 31 g ai/ha): 55 | Field Poppy plant response rating (field poppy; Postemergence, 125 g ai/ha): 70 | Field Poppy plant response rating (field poppy; Postemergence, 250 g ai/ha): 85 | Field Poppy plant response rating (field poppy; postemergence, 62 g ai/ha): 65 | Plant response rating, Common Waterhemp (common waterhemp; [1]): 100 | Plant response rating, Common Waterhemp (common waterhemp; [2]): 100 | Plant response rating, Common Waterhemp (common waterhemp; [3]): 100 | Plant response rating, Common Waterhemp (common waterhemp; [4]): 65 | Plant response rating, Common Waterhemp (common waterhemp; [5]): 100 | Ryegrass, Italian plant response rating (ryegrass, Italian; Postemergence, 31 g ai/ha): 5 | Ryegrass, Italian plant response rating (ryegrass, Italian; Postemergence, 125 g ai/ha): 10 | Ryegrass, Italian plant response rating (ryegrass, Italian; Postemergence, 250 g ai/ha): 45 | Ryegrass, Italian plant response rating (ryegrass, Italian; postemergence, 62 g ai/ha): 5 | Plant response rating, Oilseed Rape (oilseed rape; 31 g ai/ha): 35 | Plant response rating, Oilseed Rape (oilseed rape; 62 g ai/ha): 80 | Plant response rating, Oilseed Rape (oilseed rape; 125 g ai/ha): 100 | Plant response rating, Oilseed Rape (oilseed rape; 250 g ai/ha): 100 | Chickweed plant response rating (chickweed; Postemergence, 31 g ai/ha): 25 | Chickweed plant response rating (chickweed; Postemergence, 125 g ai/ha): 70 | Chickweed plant response rating (chickweed; Postemergence, 250 g ai/ha): 80 | Chickweed plant response rating (chickweed; postemergence, 62 g ai/ha): 50
